Measured values as given in patent US12187681B2 (Shanghai East Hospital, priority 2019, dated 2025).
Where a name gives a salt, the structure may show the parent alone.

Experiments:
Assay type in all cases: cell-based
[1] = target: T1, Iks potassium channel (KCNQ1/KCNE1) (Homo sapiens, UniProt P51787); assay: Iks channel whole-cell patch clamp (Ion Channel Activity Measurement); details: human, CHO cells stably expressing Iks channel (KCNQ1 and KCNE1), room temperature; for inhibition at 5 min, 1 μM: pH 7.4, 1 μM test article; for inhibition at 5 min, 10 μM: pH 7.4, 10 μM test article
T1 construct: expressed in transfected cells; host or cells: CHO
T1 sequence (P51787 whole entry): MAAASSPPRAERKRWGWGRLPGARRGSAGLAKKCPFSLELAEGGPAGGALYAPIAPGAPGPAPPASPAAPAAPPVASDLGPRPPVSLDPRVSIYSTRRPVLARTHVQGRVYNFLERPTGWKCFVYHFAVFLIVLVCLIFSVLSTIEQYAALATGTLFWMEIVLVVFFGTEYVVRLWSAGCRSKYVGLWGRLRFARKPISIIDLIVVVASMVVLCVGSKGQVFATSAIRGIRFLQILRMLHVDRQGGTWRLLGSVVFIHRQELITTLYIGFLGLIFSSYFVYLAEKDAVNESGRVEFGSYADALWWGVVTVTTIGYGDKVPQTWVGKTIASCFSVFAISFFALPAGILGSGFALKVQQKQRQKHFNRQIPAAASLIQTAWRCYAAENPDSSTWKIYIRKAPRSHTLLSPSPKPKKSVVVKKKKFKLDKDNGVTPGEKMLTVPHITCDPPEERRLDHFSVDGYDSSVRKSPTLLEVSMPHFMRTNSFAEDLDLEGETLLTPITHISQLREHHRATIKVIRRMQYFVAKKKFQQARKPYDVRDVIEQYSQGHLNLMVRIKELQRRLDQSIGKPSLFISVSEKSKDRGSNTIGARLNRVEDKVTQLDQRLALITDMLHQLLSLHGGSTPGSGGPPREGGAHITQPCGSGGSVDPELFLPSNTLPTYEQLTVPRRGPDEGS

[2] = target: T2, hERG (human ether-a-go-go related gene potassium channel, KCNH2) (Homo sapiens, UniProt Q12809); assay: hERG channel whole-cell patch clamp (Ion Channel Activity Measurement); details: human, HEK293 cells expressing the human ERG potassium channel, room temperature; for inhibition at 1 μM: pH 7.4, 1 μM test article; for inhibition at 10 μM: pH 7.4, 10 μM test article
T2 construct: expressed in transfected cells; host or cells: HEK293
T2 sequence (Q12809 whole entry): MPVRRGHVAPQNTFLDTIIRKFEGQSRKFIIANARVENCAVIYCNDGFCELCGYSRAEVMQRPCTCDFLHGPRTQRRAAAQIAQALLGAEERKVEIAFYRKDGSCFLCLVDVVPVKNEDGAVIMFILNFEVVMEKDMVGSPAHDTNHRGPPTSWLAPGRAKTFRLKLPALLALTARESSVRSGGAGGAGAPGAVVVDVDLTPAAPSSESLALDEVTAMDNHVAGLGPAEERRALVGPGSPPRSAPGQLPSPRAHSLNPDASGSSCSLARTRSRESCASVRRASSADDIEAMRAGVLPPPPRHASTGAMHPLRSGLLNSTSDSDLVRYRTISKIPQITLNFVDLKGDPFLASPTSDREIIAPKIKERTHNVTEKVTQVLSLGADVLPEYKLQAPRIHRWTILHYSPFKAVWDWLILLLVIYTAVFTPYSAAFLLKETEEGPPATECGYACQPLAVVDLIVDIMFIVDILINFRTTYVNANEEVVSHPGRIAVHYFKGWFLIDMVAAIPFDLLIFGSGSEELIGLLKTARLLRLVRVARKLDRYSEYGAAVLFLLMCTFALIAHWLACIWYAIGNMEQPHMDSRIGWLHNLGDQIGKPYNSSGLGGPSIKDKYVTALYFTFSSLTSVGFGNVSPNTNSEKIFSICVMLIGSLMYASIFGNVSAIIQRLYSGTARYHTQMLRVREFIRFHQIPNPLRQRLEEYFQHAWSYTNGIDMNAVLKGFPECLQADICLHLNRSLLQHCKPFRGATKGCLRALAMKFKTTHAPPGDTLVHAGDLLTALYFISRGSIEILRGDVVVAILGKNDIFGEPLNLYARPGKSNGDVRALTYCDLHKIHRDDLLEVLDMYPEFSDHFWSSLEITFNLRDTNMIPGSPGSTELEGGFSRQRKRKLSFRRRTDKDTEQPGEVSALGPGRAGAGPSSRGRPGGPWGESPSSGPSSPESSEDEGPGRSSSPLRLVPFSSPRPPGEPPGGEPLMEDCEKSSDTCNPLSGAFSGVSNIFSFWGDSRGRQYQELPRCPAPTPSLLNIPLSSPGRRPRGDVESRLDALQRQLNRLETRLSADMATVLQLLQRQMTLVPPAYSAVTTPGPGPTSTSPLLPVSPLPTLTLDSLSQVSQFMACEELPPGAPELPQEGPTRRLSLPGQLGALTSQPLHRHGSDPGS
In short: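 HEK293 cells stably expressing hERG (NM_000238) were recorded by whole-cell patch clamp at 23-25° C. Holding potential −80 mV, step to 30 mV for 2.5 s, tail currents at −50 mV for 4 s, pulses every 10 s. Each concentration was perfused low to high for 5 min or to steady state, with each cell as its own control.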

[3] = target: T3, CaV1.2 (L-type voltage-dependent calcium channel; CACNA1C, CACNB2, CACNA2D1) (Homo sapiens, UniProt Q13936); assay: CaV1.2 channel whole-cell patch clamp (Ion Channel Activity Measurement); details: human, room temperature; for inhibition at 5 min, 1 μM: pH 7.4, 1 μM test article; for inhibition at 5 min, 10 μM: pH 7.4, 10 μM test article, read-out: CaV 1.2 10 μM (ion-channel inhibition)
T3 construct: expressed in transfected cells; host or cells: CHO
In short: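 Whole-cell patch clamp was run on CHO cells stably expressing CACNA1C/CACNB2/CACNA2D1 at 23–25 °C, with 10 mM CaCl2 TEA bath (pH 7.4) and CsCl pipette solution (pH 7.2). Currents were evoked from −80 mV to +10 mV for 0.3 s every 20 s without leak subtraction. Ascending concentrations were each applied for 5 min or until steady state.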

inhibition at 5 min, 1 μM [1] [%]	inhibition at 5 min, 10 μM [1] [%]	Compound	inhibition at 1 μM [2] [%]	inhibition at 10 μM [2] [%]	inhibition at 5 min, 1 μM [3] [%]	inhibition at 5 min, 10 μM [3] [%]
< 25	< 25	Oc1ccccc1Cc1ccccc1O [Compound A016, 2,2′-methylenediphenol]				
< 25	50 to 75	Cc1cc2ccccc2c(Cc2c(O)ccc3ccccc23)c1O [Compound A031, 1-((2-hydroxynaphthalen-1-yl)methyl)-3-methylnaphthalen-2-ol]	< 25	50 to 75	< 25	25 to 50
25 to 50		Oc1ccc2ccccc2c1Cc1cccc2ccccc12 [Compound A052, 1-(naphthalen-1-ylmethyl)naphthalen-2-ol]	< 25	75 to 100	< 25	75 to 100
50 to 75	75 to 100	Oc1ccc2ccccc2c1Cc1c(O)ccc2ccccc12 [Compound A001, 1,1′-methylenebis(naphthalen-2-ol)]	< 25	75 to 100	< 25	75 to 100
< 25	< 25	COc1ccc2ccccc2c1Cc1c(OC)ccc2ccccc12 [Compound A015, bis(2-methoxynaphthalen-1-yl)methane]				
25 to 50	25 to 50	O=S(=O)(c1c(O)ccc2ccccc12)c1c(O)ccc2ccccc12 [Compound A005, 1,1′-sulfonylbis(naphthalen-2-ol)]				
25 to 50	75 to 100	Oc1ccc2ccccc2c1Cc1c(OCCN2CCCC2)ccc2ccccc12 [Compound A129, 1-((2-(2-(pyrrolidin-1-yl)ethoxy)naphthalen-1-yl)methyl)naphthalen-2-ol]	75 to 100		25 to 50	75 to 100
< 25	75 to 100	CCN(CC)CCCOc1ccc2ccccc2c1Cc1c(O)ccc2ccccc12 [Compound A135, 1-((2-(3-(diethylamino)propoxy)naphthalen-1-yl)methyl)naphthalen-2-ol]	75 to 100	75 to 100	25 to 50	75 to 100
< 25	25 to 50	COc1ccc2ccccc2c1C(O)c1c(OC)ccc2ccccc12 [Compound A040, bis(2-methoxynaphthalen-1-yl)methanol]				
< 25	75 to 100	CCN(CC)CCOc1ccc2ccccc2c1Nc1c(OC)ccc2ccccc12 [Compound A111-I-1, 2-(2-(diethylamino)ethoxy)-N-(2-methoxynaphthalen-1-yl)naphthalen-1-amine]	75 to 100	75 to 100	< 25	
< 25	25 to 50	[O-][S+](c1c(O)ccc2ccccc12)c1c(O)ccc2ccccc12 [Compound A006, 1,1′-sulfinylbis(naphthalen-2-ol)]	< 25	< 25	< 25	< 25
75 to 100	75 to 100	O=S(=O)(Nc1ccc2ccccc2c1Cc1c(O)ccc2ccccc12)c1ccccc1 [Compound A026, N-(1-((2-hydroxynaphthalen-1-yl)methyl)naphthalen-2-yl)benzenesulfonamide]	< 25	25 to 50	< 25	75 to 100
< 25		CC[N+](C)(CC)CCOc1ccc2ccccc2c1Sc1c(OC)ccc2ccccc12 [Compound A191, diethyl(2-((1-((2-methoxynaphthalen-1-yl)thio)naphthalen-2-yl)oxy)ethyl)(methyl)-14-azane, iodide salt]	75 to 100	75 to 100	25 to 50	75 to 100
< 25	50 to 75	CCN(CC)CCOc1ccc2ccccc2c1Sc1c(OC)ccc2ccccc12 [Compound A152, N,N-diethyl-2-((1-((2-methoxynaphthalen-1-yl)thio)naphthalen-2-yl)oxy)ethan-1-amine]	75 to 100		< 25	75 to 100
< 25	25 to 50	COc1ccc2ccccc2c1Cc1c(OCC[N+]2(C)CCOCC2)ccc2ccccc12 [Compound A130-2, 4-(2-((1-((2-methoxynaphthalen-1-yl)methyl)naphthalen-2-yl)oxy)ethyl)-4-methylmorpholin-4-ium formate]	75 to 100		50 to 75	75 to 100
25 to 50	50 to 75	CN(c1c(O)ccc2ccccc12)c1c(O)ccc2ccccc12 [Compound A003, 1,1′-(methylazanediyl)bis(naphthalen-2-ol)]	25 to 50	75 to 100	< 25	25 to 50
25 to 50	75 to 100	CN(C)CCOc1ccc2ccccc2c1Cc1c(O)ccc2ccccc12 [Compound A134, 1-((2-(2-(dimethylamino)ethoxy)naphthalen-1-yl)methyl)naphthalen-2-ol]	75 to 100	75 to 100	< 25	75 to 100
		COc1ccc2ccccc2c1Cc1c(OCCN(CCO)CCO)ccc2ccccc12 [Compound A195, 2,2′-((2-((1-((2-methoxynaphthalen-1-yl)methyl)naphthalen-2-yl)oxy)ethyl)azanediyl)bis(ethan-1-ol)]	75 to 100	75 to 100	< 25	75 to 100
		CS(=O)(=O)Nc1ccc2ccccc2c1Cc1c(O)ccc2ccccc12 [Compound A025, N-(1-((2-hydroxynaphthalen-1-yl)methyl)naphthalen-2-yl)methanesulfonamide]	< 25	25 to 50	< 25	25 to 50
25 to 50	75 to 100	CCN(CC)CCOc1ccc2ccccc2c1Sc1c(O)ccc2ccccc12 [Compound A151, 1-((2-(2-(diethylamino)ethoxy)naphthalen-1-yl)thio)naphthalen-2-ol]	75 to 100	75 to 100	< 25	75 to 100
< 25	< 25	COc1ccc2ccccc2c1Cc1c(O)ccc2ccccc12 [Compound A014, 1-((2-methoxynaphthalen-1-yl)methyl)naphthalen-2-ol]	< 25	75 to 100	< 25	50 to 75
